The record followed here is paper PMC4311240, “Rationally Designed Peptidomimetic Modulators of Aβ Toxicity in Alzheimer's Disease” (Scientific Reports, 2015).

The test system of one data set is trypsin. The data set can be described thus: Protease stability assay, trypsin. The note with it: 100 mM NH4HCO3 buffer pH 8, 50 μM, 37°C, 24 h, RP-HPLC. The class given is in vitro ADME. On the procedure:
(§1) Enzymes trypsin and pepsin are well-known to cleave the C-terminal of lysine and amide bond involving aromatic amino acids, respectively. Peptides were incubated with both the enzymes at 37°C for 24 h, and the amount of the residual intact peptide was monitored in each case at different time points (0, 3, 6, 12 and 24 h) using RP-HPLC. […] Overall, the stability assays with blood plasma and proteolytic enzymes led to similar conclusions and confirmed the stability, order P5>P4≫P3≈P2>P1.
(§2) Preliminary stability assays were performed using the enzymes pepsin and trypsin. For all assays, peptides were incubated with the enzyme at 37°C for 24 h. All digestion assay data were analyzed by RP-HPLC. Trypsin and pepsin stocks were prepared in 100 mM ammonium bicarbonate (NH4HCO3) buffer (pH 8) and 100 mM formic acid buffer (pH 2), respectively. All the peptides/peptidomimetics (P1, P2, P3, P4 and P5) were incubated with trypsin and pepsin enzymes in 100 mM NH4HCO3 buffer (pH 8) and formic acid buffer (pH 2), respectively, at 37°C. The trypsin reactions were halted with 0.05% formic acid, and the pepsin reactions were halted with 100 mM NH4HCO3. Then the samples were analyzed by RP-HPLC using a linear gradient of solvent B (0.3 mL/min flow rate); similar data points were collected at various time points between 0 and 24 h (1 h, 3 h, 6 h, 12 h and 24 h) during incubation and analyzed in triplicates. The percentages of recovered peptide/peptidomimetics were detected by integration at 254 nm[46].
(§3) Figure S6. Stability towards protease enzymes pepsin and trypsin. P1, P2, P3, P4 and P5 ([…]) were incubated in with enzymes pepsin a and trypsin b in 100 mM formic acid buffer (pH 2) and 100 mM NH4HCO3 buffer (pH 8) respectively. Percentage of intact peptide in each case was monitored at different time points for a duration of 24 h. P1, P2 and P3 degraded with time, […]
(§4) (1 picture or pasted object on this page, not shown here)

The next data set in a line: Serum stability assay. In kind it is in vitro ADME. The note with it: human blood serum (centrifuged to remove lipid), 37°C, 24 h, RP-HPLC at 254 nm. On the procedure:
The impact of N-terminal modification (P2 and P3) and Sr (N-methylglycine) substitution (P4 and P5) in P1 were investigated for their proteolytic stability towards blood plasma proteases. The assay involved the incubation of peptides (50 μM) with blood serum at 37°C for a period of 24 h and assessing the amount of intact peptides at different time points (0, 3, 6, 12 and 24 h) using RP-HPLC. […] Remarkably, P4 and P5 were very stable towards blood plasma proteases in comparison to the other peptides (P1, P2 and P3). […] Proteolytic enzymes generally recognize the specific amide bond between the natural amino acids and cleave them. […] On the other hand, P4 and P5 with an unnatural amino acid (Sr: N-methylglycine) in alternate positions were not recognized by the blood plasma proteases, resulting in their high blood plasma protease stability.
Figure 6 Serum stability of inhibitors. Inhibitors (50 μM) (P1-P5)were incubated in human blood serum (HBS) and were analyzed at different time points over a duration of 24 h to determine the percentage of intact inhibitor. […] Each experiment was repeated three times (n = 3). Error bars represent the standard deviation (SD) of the […] measurement.
Human blood serum (HBS) was used to determine serum stability of the inhibitors. The HBS was centrifuged to remove the lipid component, and the supernatant was incubated at 37°C. 50 Μm of each inhibitor (P1, P2, P3, P4 and P5) was incubated in HBS and then 40 μL triplicate aliquots were removed at 0, 1, 3, 6, 10, 16, and 24 h. Each serum sample was quenched with 40 μL of 6 M urea and incubated at 4°C for 10 min. Then, each serum sample was quenched with 40 μL of trichloroacetic acid (20%) and incubated for another 10 min at 4°C to precipitate the serum proteins. The samples were centrifuged for 10 min, and […] of the supernatant was analyzed on RP-HPLC using a linear gradient of solvent B (0.3 mL/min flow rate). The control samples containing equivalent amounts of inhibitors in PBS buffer were subjected to the same treatment procedure. The percentage recovery of inhibitors was detected by integration at 254 nm[45].

In data set [1] the target is T1, Aβ42 fibrillar aggregates (Homo sapiens, UniProt P05067).
T1 construct: Aβ42 peptide (0.25 mg) (Calbiochem, Merck) was dissolved in hexafluoro-2-propanol; purchased Calbiochem, Merck
Put plainly: ThT fluorescence reversal (dissolution) assay of preformed Aβ42 fibrillar aggregates. The note with it: Aβ42 fibrillar aggregates grown for 2 days, 20 μM, 1:2 stoichiometry, day 6, 37°C, n = 3. In kind it is biochemical. On the procedure: (§5) ThT assay has been widely used to monitor the transformation of Aβ42 monomers to fibrillar aggregates. We employed ThT assay to evaluate the ability of our peptidomimetic candidates to either prevent fibril assembly (inhibition) or to break down preformed fibrils of Aβ42 (dissolution). For the inhibition assay all the peptidomimetics (P2, P3, P4 and P5) along with control peptide P1 were added at 0 h of the experiment, whereas for the aggregates reversal (dissolution) assay they were added to Aβ42 fibrillar aggregates grown for 2 days. Once they had been incubated together, Aβ42/inhibitors were analyzed using ThT by measuring the fluorescence changes. First, we performed concentration-dependent experiments where different ratios of P1, P2, P3, P4 and P5 were incubated with fixed concentrations of Aβ42 (20 μM) and its aggregates to study their effect on both inhibition and reversal assay, respectively. Experiments were performed at stoichiometric ratios (Aβ42/inhibitor) of 1:0.2, 1:1, and 1:2 with the fixed concentration of Aβ42 of 20 μM. […] However, the efficiencies of P4 and P5 were only marginally better in inhibition assay compared to reversal assay with a difference of about 15%.
Aβ42 peptide (0.25 mg) (Calbiochem, Merck) was dissolved in hexafluoro-2-propanol (HFIP, 0.2 mL) and incubated at room temperature for 1 h. HFIP was then removed by the flow of nitrogen and further dried under vacuum. HFIP-treated Aβ42 was then dissolved in 10 mM PBS buffer to a concentration of 200 μM at pH 7.4. The solution was incubated at 37°C for 48 h with constant shaking for fibril formation. The formation of Aβ42 fibrillar aggregates was confirmed by ThT fluorescence, CD measurements and electron microscopy. For oligomers, HFIP-treated Aβ42 dissolved in 10 mM PBS buffer and incubated at 4°C for 24 h[44].
(§6) Fluorescence spectral measurements were carried out using Perkin Elmer Model LS 55 fluorescence spectrophotometer. […] A ThT concentration of 5–10 µM was used for amyloid fibrillization and dissolution assay based on the Aβ42 fibrillar concentration.
(§7) Prior to the experiment, P1, P2, P3, P4 and P5 were dissolved in HFIP and were evaporated under a stream of dry nitrogen. The dried samples were re-suspended in 10 mM PBS buffer at pH 7.4. An aliquot of Aβ42 peptide was then added to the solution with or without one of the inhibitor P1, P2, P3, P4 and P5. The mixtures were vortexed for approximately 30 s and then incubated at 37°C for 2–3 days without shaking. The final concentration of Aβ42 in the mixture was 20 μΜ. For a dissolution experiment, Aβ42 was incubated alone for 2 days to allow fibrils to form. An aliquot of the formed fibrils in 10 mM PBS buffer was then added to the inhibitor peptidomimetics. The amount of fibrils remaining intact was assayed using that fluorescence, CD measurements and transmission electron microscopy as described below.

A further data set has as its target T2, Aβ42 (Homo sapiens, UniProt P05067).
T2 construct: Aβ42 peptide (0.25 mg) (Calbiochem, Merck) was dissolved in hexafluoro-2-propanol; purchased Calbiochem, Merck
Put plainly: ThT fluorescence inhibition assay of Aβ42 fibrillization. In kind it is biochemical. The note with it: Aβ42 20 μM, Aβ42:inhibitor 1:2 (40 μM), inhibitor added at 0 h, four days at 37°C, 10 mM PBS pH 7.4, n = 3; read-out: inhibition efficiency (reduction in the fluorescence intensity of ThT). As to the method: as §5, §6, §7

For a further data set, the system named is pepsin. The data set can be described thus: Protease stability assay, pepsin. In kind it is in vitro ADME. Conditions: 100 mM formic acid buffer pH 2, 50 μM, 37°C, 24 h, RP-HPLC. On the procedure:
as §1, §2, §3, §4

T1 sequence (P05067 672-713 limits assumed): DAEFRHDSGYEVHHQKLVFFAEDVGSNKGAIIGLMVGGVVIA
T2 sequence (P05067 672-713 limits assumed): as above

Usually half-life stands for how long it takes for the measured level to halve. A word on the inhibition: it is the relative decrease from the control value, in per cent. As for `CC(C)C[C@H](NC(=O)[C@@H](N)CCCCN)C(=O)N[C@H](C(=O)N[C@@H](Cc1ccccc1)C(=O)N[C@@H](Cc1ccccc1)C(N)=O)C(C)C` [P1, reference compound], the “stability towards trypsin” value with trypsin is listed as “less stable”. Also, the half-life at 50 μM in “Serum stability assay” (n = 3) was around 180 min. Besides, in “Serum stability assay” (n = 3, read-out: peptide degraded at 24 h in serum), the metabolised at 24 h, 50 μM was found to be 80%. Besides, in data set [1], the “dissolution efficiency, fibril reversal assay (ThT)” value was determined as 20%. The inhibition at 40 µM at Aβ42 worked out at 20%. Also, the “stability towards pepsin” value in the data set with pepsin is reported as “less stable”.
